Measured values from ChEMBL document CHEMBL5096228, “Targeting Vancomycin-Resistant Enterococci (VRE) Infections and Van Operon-Mediated Drug Resistance Using Dimeric Cholic Acid-Peptide Conjugates” (J Med Chem, 2022).

How the values were obtained:
[1] = Hemolytic activity in human RBC at 50 ug/ml; assay type: toxicity, cell-based, Erythrocyte; conditions: red blood cells (erythrocytes), at 50 µg/mL, read-out: Activity
Staphylococcus aureus [2] = assay: Antimicrobial activity against Staphylococcus aureus ATCC 25923 assessed as growth inhibition after 14 to 16 hrs by CLSI based broth dilution method; assay type: functional; conditions: time 14-16 hrs
Enterococcus faecium [3] = assay: Antimicrobial activity against Enterococcus faecium assessed as growth inhibition after 14 to 16 hrs by CLSI based broth dilution method; assay type: functional; conditions: time 14-16 hrs
Enterococcus faecium [4] = assay: Antimicrobial activity against Vancomycin-resistant Enterococcus faecium ATCC 51559 assessed as growth inhibition after 14 to 16 hrs by CLSI based broth dilution method; assay type: functional; conditions: time 14-16 hrs
[5] = Cytotoxicity against mouse LLC cells assessed as reduction in cell viability; assay type: toxicity, cell-based; conditions: LLC (3LL) cells
Staphylococcus aureus [6] = assay: Antimicrobial activity against methicillin-resistant Staphylococcus aureus ATCC 33591 assessed as growth inhibition after 14 to 16 hrs by CLSI based broth dilution method; assay type: functional; conditions: time 14-16 hrs

| SMILES | hemolysis at 50 ug/ml [1] [%] | MIC99 (Staphylococcus aureus [2]) [µg/mL] | MIC99 (Enterococcus faecium [3]) [µg/mL] | MIC99 (Enterococcus faecium [4]) [µg/mL] | IC50 [5] [µg/mL] | MIC99 (Staphylococcus aureus [6]) [µg/mL] |
| --- | --- | --- | --- | --- | --- | --- |
| C[C@H](CCC(=O)NCc1cn(CCCCCn2cc(CNC(=O)CC[C@@H](C)[C@H]3CC[C@H]4[C@@H]5[C@H](OC(=O)CN)C[C@@H]6C[C@H](OC(=O)CN)CC[C@]6(C)[C@H]5C[C@H](OC(=O)CN)[C@]34C)nn2)nn1)[C@H]1CC[C@H]2[C@@H]3[C@H](OC(=O)CN)C[C@@H]4C[C@H](OC(=O)CN)CC[C@]4(C)[C@H]3C[C@H](OC(=O)CN)[C@]12C.Cl.Cl.Cl.Cl.Cl.Cl | 10 | 128 | 32 | 16 | 153 | 64 |
| CC(C)C(N)C(=O)NCC(=O)O[C@@H]1CC[C@@]2(C)[C@@H](C1)C[C@@H](OC(=O)CNC(=O)C(N)C(C)C)[C@@H]1[C@@H]2C[C@H](OC(=O)CNC(=O)C(N)C(C)C)[C@]2(C)[C@@H]([C@H](C)CCC(=O)NCc3cn(CCCCCCn4cc(CNC(=O)CC[C@@H](C)[C@H]5CC[C@H]6[C@@H]7[C@H](OC(=O)CNC(=O)C(N)C(C)C)C[C@@H]8C[C@H](OC(=O)CNC(=O)C(N)C(C)C)CC[C@]8(C)[C@H]7C[C@H](OC(=O)CNC(=O)C(N)C(C)C)[C@]56C)nn4)nn3)CC[C@@H]12.Cl.Cl.Cl.Cl.Cl.Cl (stereo partly drawn) | 57 | 128 | 16 | 4 | 69 | 32 |
| C[C@H](CCC(=O)NCc1cn(CCCCCCn2cc(CNC(=O)CC[C@@H](C)[C@H]3CC[C@H]4[C@@H]5[C@H](OC(=O)CN)C[C@@H]6C[C@H](OC(=O)CN)CC[C@]6(C)[C@H]5C[C@H](OC(=O)CN)[C@]34C)nn2)nn1)[C@H]1CC[C@H]2[C@@H]3[C@H](OC(=O)CN)C[C@@H]4C[C@H](OC(=O)CN)CC[C@]4(C)[C@H]3C[C@H](OC(=O)CN)[C@]12C.Cl.Cl.Cl.Cl.Cl.Cl | 58 | 128 | 16 | 8 | 66 | 32 |
